Here are results for 17 compounds from patent US20230058189A1, “QUINOLIN-4-ONE AND 4(1H)-CINNOLINONE COMPOUNDS AND METHODS OF USING SAME” (Frequency Therapeutics, Inc., priority 2019, published 2023).

pIC50: −log10 of the molar value.

What all share (type): biochemical
Test [1] concerns the target LSD-1 (Homo sapiens, UniProt O60341). Description: LSD-1 A-screen (AlphaScreen) demethylase enzymatic assay. Particulars: approximate values; for inhibition at 50 µM: 50 μM compound, read-out: Potency LSD-1 % Inhibition at 50 μM; for pIC50: read-out: Potency LSD-1 IC50. The protocol:
(§1) Enzymatic activities of compounds of the present disclosure can be tested with recombinant human LSD using an in vitro enzymatic assay to determine the ability of the compounds of the present disclosure to inhibit LSD-1 and LSD2. Examples of the assay are provided below.
(§2) All of the enzymatic reactions were conducted in duplicate at room temperature for 60 minutes in a 10 μL mixture containing assay buffer, histone H3 peptide substrate, demthylase enzyme, and the test compound. These 10 μL reactions were carried out in wells of a 384-well Optiplate (PerkinElmer). The dilution of the compounds was first performed in 100% DMSO with the highest concentration at 5 mM Each intermediate compound dilution (in 100% DMSO) was then directly diluted 30× fold into assay buffer for 3.3× concentration (DMSO). […] From this intermediate step, 3 μL of compound was added to 4 μL of demethylase enzyme dilution was incubated for 30 minutes at room temperature. After this incubation, 3 μL of peptide substrate was added. The final DMSO concentration was 1%. After enzymatic reactions, 5 μL of anti-Mouse or anti-Rabbit Acceptor beads (PerkinElmer, diluted 1:500 with 1× detection buffer) and […] (BPS, diluted 1:800 with 1× detection buffer) were added to the reaction mix. After brief shaking, the plate was incubated for 30 minutes. Finally, 10 μL of AlphaScreen™ Streptavidin-conjugated donor beads (Perkin, diluted 1:125 with 1× detection buffer) were added. After 30 minutes, the samples were measured in an AlphaScreen microplate reader (EnSpire Alpha 2390 Multilabel Reader, Perkin Elmer).
(§3) Enzyme activity assays were performed in duplicates at each concentration. The A-screen intensity data were analyzed and compared. In the absence of the compound, the intensity in each data set was defined as 100% (Ce) activity. In the absence of enzyme, the intensity in each data set was defined as 0% (C0) activity. The percent activity in the presence of each compound was calculated according to the following equation: % activity=(C−C0)/(Ce−C0), where C=the intensity in the presence of the compound.
(§4) The value of percent activity versus a series of compound concentrations was then plotted using non-linear regression analysis of Sigmoidal dose-response curve generated with the equation Y=B+(T−B)/1+10((LogEC50−X)×Hill Slope), where Y=percent activity, B=minimum percent activity, T=maximum percent activity, X=logarithm of compound and Hill Slope=slope factor or Hill coefficient. The IC50 value was determined by the concentration causing a half-maximal percent activity.
(In Alpha technology, singlet oxygen from a donor bead excites a nearby acceptor bead.)

In test [2] the target is T1, LSD2 (Homo sapiens, UniProt Q8NB78).
T1 sequence (Q8NB78 1-822): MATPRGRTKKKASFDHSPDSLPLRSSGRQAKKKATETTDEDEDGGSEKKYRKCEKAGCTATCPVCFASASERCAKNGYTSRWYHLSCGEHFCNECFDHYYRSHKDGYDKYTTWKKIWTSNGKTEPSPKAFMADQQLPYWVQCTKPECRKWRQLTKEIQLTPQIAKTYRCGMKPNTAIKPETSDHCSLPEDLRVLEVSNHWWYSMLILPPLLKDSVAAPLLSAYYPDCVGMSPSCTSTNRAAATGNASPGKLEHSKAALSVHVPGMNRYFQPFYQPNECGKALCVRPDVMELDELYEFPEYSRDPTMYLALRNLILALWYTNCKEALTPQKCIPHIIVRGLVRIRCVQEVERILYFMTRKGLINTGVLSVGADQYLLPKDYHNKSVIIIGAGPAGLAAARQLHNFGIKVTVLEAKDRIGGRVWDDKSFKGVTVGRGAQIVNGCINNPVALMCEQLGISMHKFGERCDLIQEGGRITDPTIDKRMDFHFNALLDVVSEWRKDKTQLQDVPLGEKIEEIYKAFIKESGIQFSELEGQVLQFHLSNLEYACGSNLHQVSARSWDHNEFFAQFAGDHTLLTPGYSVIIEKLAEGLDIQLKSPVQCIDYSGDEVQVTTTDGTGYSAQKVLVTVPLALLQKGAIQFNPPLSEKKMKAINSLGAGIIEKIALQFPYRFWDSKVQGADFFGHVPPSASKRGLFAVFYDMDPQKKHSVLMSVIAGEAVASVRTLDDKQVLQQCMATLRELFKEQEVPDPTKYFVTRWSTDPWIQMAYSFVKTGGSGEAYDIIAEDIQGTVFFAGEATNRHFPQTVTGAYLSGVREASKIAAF
Description: LSD2 A-screen (AlphaScreen) demethylase enzymatic assay. Particulars: approximate values; for inhibition at 50 µM: 50 μM compound, read-out: Potency LSD-2 % Inhibition at 50 μM; for pIC50: read-out: Potency LSD-2 IC50. The procedure:
as §1, §2, §3, §4

Test [3] concerns the target GSK3β (Homo sapiens, UniProt P49841). Description: GSK3β in vitro enzymatic assay (Kinase-Glo Max luminescence). Particulars: recombinant human GSK3, 10 μM ATP; approximate values; read-out: Potency GSK3beta. The protocol: (§5) Enzymatic activities of compounds of the present disclosure can be tested using recombinant human GSK3 in an in vitro enzymatic assay to determine the ability of the compounds of the present disclosure to inhibit GSK3α and GSK3β.
(§6) The assay was performed using Kinase-Glo® Max luminescence kinase assay kit (Promega). The assay measures kinase activity by quantitating the amount of ATP remaining in solution following a kinase reaction. The luminescent signal from the assay is correlated with the amount of ATP present and is inversely correlated with the amount of kinase activity.
(§7) To perform the assay, compounds were diluted in 10% DMSO and 5 μl of the dilution was added to a 50 μl reaction so that the final concentration of DMSO was 1% in all of reactions. The enzymatic reactions were conducted at 30° C. for 40 minutes. The 50 μl reaction mixture contained 40 mM Tris, pH 7.4, 10 mM MgCl2, 0.1 mg/ml BSA, 2 mM DTT, 0.1 mg/ml GSK tide substrate, 10 uM ATP and GSK3. After the enzymatic reaction, 50 μl of Kinase-Glo Max Luminescence kinase assay solution (Promega) was added to each reaction and plates were incubated for 15 minutes at room temperature. Luminescence signal was measured using a BioTek Synergy 2 microplate reader.
(§8) Kinase activity assays were performed in duplicate at each concentration. The luminescence data were analyzed using the computer software, GraphPad Prism. The difference between luminescence intensities in the absence of Kinase (Lut) and in the presence of Kinase (Luc) was defined as 100% activity (Lut-Luc). Using luminescence signal (Lu) in the presence of the compound, percent activity was calculated as: % activity={(Lut-Lu)/(Lut-Luc)}×100%, where Lu=the luminescence intensity in the presence of the compound (all percent activities below zero were shown zero in the table).
(§9) The values of percent activity versus a series of compound concentrations were then plotted using non-linear regression analysis of Sigmoidal dose-response curve generated with the equation Y=B+(T−B)/1+10((LogEC50−X)×Hill Slope), where Y=percent activity, B=minimum percent activity, T=maximum percent activity, X=logarithm of compound and Hill Slope=slope factor or Hill coefficient. The ICs, value was determined by the concentration causing a half-maximal percent activity.

In test [4] the target is GSK3α (Homo sapiens, UniProt P49840). Description: GSK3α in vitro enzymatic assay (Kinase-Glo Max luminescence). As to conditions: recombinant human GSK3, 10 μM ATP; approximate values; read-out: Potency GSK3alpha. The procedure:
as §5, §6, §7, §8, §9
For orientation: In Kinase-Glo more light means more ATP remaining.

Sequence of GSK3α (P49840 whole entry): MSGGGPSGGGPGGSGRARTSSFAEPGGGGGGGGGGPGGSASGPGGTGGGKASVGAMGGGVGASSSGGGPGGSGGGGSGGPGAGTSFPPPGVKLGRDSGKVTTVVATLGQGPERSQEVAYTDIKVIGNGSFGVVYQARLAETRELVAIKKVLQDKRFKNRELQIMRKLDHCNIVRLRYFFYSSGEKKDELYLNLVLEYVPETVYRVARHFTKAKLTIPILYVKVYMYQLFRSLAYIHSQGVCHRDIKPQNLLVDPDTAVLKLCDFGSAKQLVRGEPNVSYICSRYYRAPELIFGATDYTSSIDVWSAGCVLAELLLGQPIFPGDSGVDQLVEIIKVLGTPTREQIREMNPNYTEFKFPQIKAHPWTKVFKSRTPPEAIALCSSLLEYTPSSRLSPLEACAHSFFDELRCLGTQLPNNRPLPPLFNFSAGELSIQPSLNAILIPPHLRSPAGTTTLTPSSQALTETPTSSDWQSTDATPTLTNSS
Sequence of GSK3β (P49841 whole entry): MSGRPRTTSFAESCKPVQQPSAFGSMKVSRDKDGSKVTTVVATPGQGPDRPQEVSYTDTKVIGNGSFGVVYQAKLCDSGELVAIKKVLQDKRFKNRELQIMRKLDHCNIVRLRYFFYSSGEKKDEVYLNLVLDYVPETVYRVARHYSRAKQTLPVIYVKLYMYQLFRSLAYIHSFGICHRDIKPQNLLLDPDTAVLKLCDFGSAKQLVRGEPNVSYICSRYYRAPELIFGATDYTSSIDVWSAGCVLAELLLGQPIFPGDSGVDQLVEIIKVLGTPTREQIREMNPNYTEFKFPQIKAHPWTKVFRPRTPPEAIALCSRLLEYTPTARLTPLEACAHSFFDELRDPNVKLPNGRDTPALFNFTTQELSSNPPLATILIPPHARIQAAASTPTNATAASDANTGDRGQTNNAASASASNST

Take `CCn1cc(C(=O)O)c(=O)c2c(N)c(F)c(N[C@@H]3CC[C@H]3c3ccccc3)cc21` (relative stereo) [Compound I-13]: the inhibition at 50 µM was found to be 26% in test [1] and 18% in test [2]. The pIC50 is 6.26 in test [3] and 6.20 in test [4].
For `CCn1cc(C(=O)O)c(=O)c2c(N)c(F)c(N[C@@H]3CC[C@@H]3c3ccccc3)cc21` (relative stereo) [Compound I-14], the values for the inhibition at 50 µM in test [1] and in test [2] were 5% and 3%, respectively. Further, the pIC50 in test [3] and in test [4] was less than 5.00 each time.
Regarding `CCn1cc(C(=O)O)c(=O)c2c(N)c(F)c(N[C@@H]3C[C@@H]3c3ccccc3)cc21` (relative stereo) [Compound I-23], the inhibition at 50 µM in test [1] amounted to 26%; in test [2], 16%. For the same compound, the pIC50 is 6.11 in test [3] and 6.66 in test [4].
As to `CCn1cc(C(=O)O)c(=O)c2c(N)c(F)c(N3CCC(N[C@@H]4C[C@H]4c4ccccc4)CC3)cc21` (relative stereo) [Compound I-26], the pIC50 in test [1] is 5.82; in test [3], less than 5.00; in test [4], less than 5.00. For the same compound, in test [2], the inhibition at 50 µM was found to be 53%.
Turning to `CCn1cc(C(=O)O)c(=O)c2c(N)c(F)c(N[C@H]3CC[C@H](N[C@@H]4C[C@H]4c4ccccc4)CC3)cc21` (relative stereo) [Compound I-27], the pIC50 in test [1] is 5.80; in test [3] it was 7.12; in test [4] it was 7.33. Moreover, the inhibition at 50 µM in test [2] stood at 45%.
With `CCn1cc(C(=O)O)c(=O)c2c(N)c(F)c(N[C@H]3CC[C@@H](N[C@@H]4C[C@H]4c4ccccc4)CC3)cc21` (relative stereo) [Compound I-28], the pIC50 was 5.89 in test [1], 6.16 in test [3] and 6.35 in test [4]. The inhibition at 50 µM in test [2] came to 65%.
In the case of `CCn1cc(C(=O)O)c(=O)c2c(N)c(F)c(NCCN[C@@H]3C[C@H]3c3ccccc3)cc21` (relative stereo) [Compound I-29], the pIC50 was 5.16 in test [1], 6.52 in test [3] and 6.92 in test [4]. Besides, the inhibition at 50 µM in test [2] was 54%.
Turning to `Nc1c(F)c(N[C@@H]2C[C@H]2c2ccccc2)c(F)c2c1c(=O)c(C(=O)O)cn2C1CC1` (relative stereo) [Compound I-32], the figures for the inhibition at 50 µM in test [1] and in test [2] were 40% and 36%, respectively. Moreover, the values for the pIC50 in test [3] and in test [4] were 5.68 and 5.80, respectively.
The corresponding values for `CCn1cc(C#N)c(=O)c2c(N)c(F)c(N[C@@H]3C[C@H]3c3ccccc3)cc21` (relative stereo) [Compound I-38] are 15%, 0%, 8.60 and 8.20.
`CCn1cc(C(=O)O)c(=O)c2c(N)c(F)c(N(C)CCN[C@H]3C[C@@H]3c3ccccc3)cc21` (relative stereo) [Compound I-50]: the pIC50 is 5.26 in test [1], less than 5.00 in test [3] and less than 5.00 in test [4]. The inhibition at 50 µM in test [2] worked out at 50%.
Regarding `CCn1cc(C(=O)O)c(=O)c2c(N)cc(N[C@@H]3C[C@H]3c3ccccc3)cc21` (relative stereo) [Compound I-59], the results for the inhibition at 50 µM in test [1] and in test [2] were 11% and 24%, respectively. Also, the pIC50 in test [3] is 5.35; in test [4] it was 5.33.
On to `CCn1cc(C(=O)O)c(=O)c2c(N)c(F)c(Nc3ccc([C@@H]4C[C@H]4N)cc3)cc21` (relative stereo) [Compound I-62], for which the pIC50 in test [1] was less than 4.00; in test [2] it was 4.31; in test [3], 6.30; in test [4], 6.35.
As for `CCn1cc(C(=O)O)c(=O)c2c(N)c(F)c(NC3CC(N[C@@H]4C[C@H]4c4ccccc4)C3)cc21` (relative stereo) [Compound I-70], the pIC50 in test [1] is 5.96; in test [2], less than 4.00; in test [3], 6.77; in test [4], 6.68.
As for `CCn1cc(C(=O)O)c(=O)c2c(N)c(F)c(NCCN[C@@H]3C[C@]34CCc3ccccc34)cc21` (relative stereo) [Compound I-81], the pIC50 is 7.24 in test [1], 4.37 in test [2], 6.26 in test [3] and 6.34 in test [4].
Take `CCn1cc(C(=O)O)c(=O)c2c(N)c(F)c(NCCN[C@@H]3C[C@@]34CCc3ccccc34)cc21` (relative stereo) [Compound I-82]: the pIC50 in test [1] is 6.72; in test [3], 5.47; in test [4], 5.81. Moreover, the inhibition at 50 µM in test [2] was 76%.
On to `CCn1cc(C(N)=O)c(=O)c2c(N)c(F)c(NCCN[C@H]3C[C@@H]3c3ccccc3)cc21` (relative stereo) [Compound I-83], for which the pIC50 in test [1] was 6.64; in test [2], less than 4.00; in test [3] it was 8.47; in test [4], 8.48.
For `CCn1cc(C#N)c(=O)c2c(N)c(F)c(NCCN[C@@H]3C[C@H]3c3ccccc3)cc21` (relative stereo) [Compound I-84], the pIC50 in test [1] is 5.85; in test [2], 4.39; in test [3], 8.66; in test [4], 8.57.

One may read the inhibition as the drop in the measured response relative to a control, in per cent.
